From US20240409519A1, “HYDROGENATED QUINOXALINES” (OTSUKA PHARMACEUTICAL CO., LTD., priority 2021, published 2024)

Key:
Type in all cases: in vitro ADME
[1] = target: T1, CYP3A4 (Homo sapiens, UniProt P08684); assay: CYP inhibition test (2): 50% inhibitory concentration from 3 concentrations, CYP3A4; settings: human liver microsome, midazolam substrate, 0.01, 0.03 and 0.1 mmol/L; read-out: 50% inhibitory concentration, 3A4
T1 construct: a human liver microsome solution containing three CYP-specific substrates; from tissue; host or cells: human liver microsomes
T1 sequence (P08684 whole entry): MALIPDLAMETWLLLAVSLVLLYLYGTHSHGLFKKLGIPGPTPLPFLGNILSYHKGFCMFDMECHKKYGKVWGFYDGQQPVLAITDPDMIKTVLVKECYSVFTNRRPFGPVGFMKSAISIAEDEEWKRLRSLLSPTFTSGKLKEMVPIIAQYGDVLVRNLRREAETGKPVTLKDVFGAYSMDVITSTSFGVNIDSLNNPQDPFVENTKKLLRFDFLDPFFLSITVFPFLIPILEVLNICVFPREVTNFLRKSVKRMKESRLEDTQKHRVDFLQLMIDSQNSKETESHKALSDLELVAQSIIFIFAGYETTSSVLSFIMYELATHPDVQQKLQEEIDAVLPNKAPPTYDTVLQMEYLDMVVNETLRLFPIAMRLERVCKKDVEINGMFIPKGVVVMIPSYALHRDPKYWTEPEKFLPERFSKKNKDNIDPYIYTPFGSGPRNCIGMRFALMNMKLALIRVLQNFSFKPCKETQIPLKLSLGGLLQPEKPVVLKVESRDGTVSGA
Procedure: (§1) A metabolic reaction was initiated by adding and mixing a test compound solution (final concentration 0.01, 0.03 and 0.1 mmol/L) and a NADH/NADPH solution (final concentration 1 mmol/L) to a human liver microsome solution containing three CYP-specific substrates (final concentration 100 mmol/L potassium phosphate buffer solution (pH 7.4), 5 mmol/L magnesium chloride, 0.1 mg/mL human liver microsome, 0.005 mmol/L diclofenac (for CYP2C9), 0.01 mmol/L bufuralol (for CYP2D6), 0.005 mmol/L midazolam (for CYP3A4)). As an internal standard solution, a solution of each of stable isotopes of the metabolites (50 ng/mL [13C6] hydroxy diclofenac, 5 ng/mL [2H9] hydroxy bufuralol, and 5 ng/mL [13C6] hydroxy midazolam (all stable isotopes)) in methanol was prepared and used as a quenching solution. Specifically, a metabolic reaction was initiated by adding and mixing 2 μL of a solution of a test compound in acetonitrile (or acetonitrile as a control) to 178 μL of a human liver microsome solution in ice water, followed by preincubation at 37° C. for 1 minute, and then adding 20 μL of a NADH/NADPH solution thereto. After incubation at 37° C. for 10 minutes, 50 μL of the reaction mixture was taken, and then it was added and mixed to 500 μL of a quenching solution to quech the reaction. The mixture was centrifuged (6130 g, 4° C., 10 minutes) and the supernatant was used as a sample for LC-MS/MS. Peak area ratio ([peak area of metabolite]/[peak area of corresponding stable isotope]) was calculated for a metabolite and a stable isotope of the metabolite as measurement object. By comparing the peak area ratio of each test compound solution with that of the control, the inhibition rate (%) of each CYP species for each test compound was calculated from (1−[peak area ratio of each test compound solution]/[peak area ratio of control])×100.

[2] = target: T2, CYP2C9 (Homo sapiens, UniProt P11712); assay: CYP inhibition test (2): 50% inhibitory concentration from 3 concentrations, CYP2C9; settings: human liver microsome, diclofenac substrate, 0.01, 0.03 and 0.1 mmol/L, read-out: 50% inhibitory concentration, 2C9
T2 construct: a human liver microsome solution containing three CYP-specific substrates; from tissue; host or cells: human liver microsomes
T2 sequence (P11712 whole entry): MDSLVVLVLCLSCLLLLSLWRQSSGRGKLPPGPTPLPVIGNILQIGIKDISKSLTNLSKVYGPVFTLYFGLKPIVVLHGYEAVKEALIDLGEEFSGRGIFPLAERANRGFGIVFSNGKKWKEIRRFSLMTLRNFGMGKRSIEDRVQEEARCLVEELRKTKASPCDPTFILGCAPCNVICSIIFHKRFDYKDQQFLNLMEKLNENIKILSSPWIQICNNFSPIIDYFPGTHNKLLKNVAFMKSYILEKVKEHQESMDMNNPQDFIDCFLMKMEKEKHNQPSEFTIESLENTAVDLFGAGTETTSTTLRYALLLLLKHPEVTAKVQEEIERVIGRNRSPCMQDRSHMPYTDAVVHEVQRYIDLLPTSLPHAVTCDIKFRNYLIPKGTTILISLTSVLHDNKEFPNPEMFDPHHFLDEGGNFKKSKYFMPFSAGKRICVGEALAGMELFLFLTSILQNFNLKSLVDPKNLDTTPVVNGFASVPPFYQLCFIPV
Procedure: as §1

[3] = target: T3, CYP2D6 (Homo sapiens, UniProt P10635); assay: CYP inhibition test (2): 50% inhibitory concentration from 3 concentrations, CYP2D6; settings: human liver microsome, bufuralol substrate, 0.01, 0.03 and 0.1 mmol/L; read-out: 50% inhibitory concentration, 2D6
T3 construct: a human liver microsome solution containing three CYP-specific substrates; from tissue; host or cells: human liver microsomes
T3 sequence (P10635 whole entry): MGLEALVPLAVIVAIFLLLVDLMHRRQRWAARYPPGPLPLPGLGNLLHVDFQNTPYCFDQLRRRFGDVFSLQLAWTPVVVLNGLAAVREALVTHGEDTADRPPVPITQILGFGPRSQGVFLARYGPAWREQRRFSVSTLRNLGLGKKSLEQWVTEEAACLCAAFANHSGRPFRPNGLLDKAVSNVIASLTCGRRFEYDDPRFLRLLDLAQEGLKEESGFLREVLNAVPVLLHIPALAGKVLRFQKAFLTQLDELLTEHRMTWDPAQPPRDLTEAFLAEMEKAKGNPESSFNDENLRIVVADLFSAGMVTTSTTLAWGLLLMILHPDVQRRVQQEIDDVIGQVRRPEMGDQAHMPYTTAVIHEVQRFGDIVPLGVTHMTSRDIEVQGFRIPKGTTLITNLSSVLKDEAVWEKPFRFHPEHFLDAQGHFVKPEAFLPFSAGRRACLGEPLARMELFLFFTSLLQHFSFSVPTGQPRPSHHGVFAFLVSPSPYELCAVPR
Procedure: as §1

Row | Compound | IC50 [1] [µM] | IC50 [2] [µM] | IC50 [3] [µM] | IC50 at 10 min ([2]; human liver microsomes, pH 7.4, probe diclofenac (0.005 mmol/L)) [µM]
1 | C[C@@H]1CN(c2cc(F)c(OCCO)c(Cl)c2)[C@H]2CCCC[C@@H]2N1 [Example 17, 2-(2-chloro-6-fluoro-4-((3R,4aS,8aS)-3-methyloctahydroquinoxalin-1(2H)-yl)phenoxy)ethan-1-ol 1/2fumarate] | > 100 | > 100 | > 100 | –
2 | C[C@H]1CN(c2cc(F)c(OCCO)c(Cl)c2)[C@H]2CCCC[C@H]2N1 [Example 18] | > 100 | > 100 | 59.1 | –
3 | CC1(C)CN(c2ccc(OC(F)(F)CO)cc2)[C@H]2CCCC[C@@H]2N1 [Example 20, 2-(4-((4aS,8aS)-3,3-dimethyloctahydroquinoxalin-1(2H)-yl)phenoxy)-2,2-difluoroethan-1-ol] | 94.9 | > 100 | > 100 | –
4 | CC1(C)CN(c2ccc(OC(F)(F)CO)cc2)[C@@H]2CCCC[C@H]2N1 [Example 21] | > 100 | > 100 | > 100 | –
5 | COc1cc(N2CC(C)(C)N[C@H]3CCCC[C@@H]32)ccc1OC(F)(F)CO [Example 26] | > 100 | > 100 | > 100 | –
6 | CC1(C)CN(c2ccc(OCCO)c(Cl)c2)[C@H]2CCCC[C@@H]2N1 [Example 27, 2-(2-chloro-4-((4aS,8aS)-3,3-dimethyloctahydroquinoxalin-1(2H)-yl)phenoxy)ethan-1-ol] | > 100 | > 100 | > 100 | –
7 | CC1(C)CN(c2ccc(OCCO)c(Cl)c2)[C@@H]2CCCC[C@H]2N1 [Example 28] | > 100 | > 100 | > 100 | –
8 | Cc1cc(N2CC(C)(C)N[C@H]3CCCC[C@@H]32)ccc1OC(F)(F)CO [Example 31] | 62.5 | > 100 | > 100 | –
9 | Cc1cc(N2CC(C)(C)N[C@@H]3CCCC[C@H]32)ccc1OC(F)(F)CO [Example 32] | 62.8 | > 100 | > 100 | –
10 | CC1(C)CN(c2cc(F)c(OCCO)c(F)c2)[C@H]2CCCC[C@@H]2N1 [Example 34, 2-(4-((4aS,8aS)-3,3-dimethyloctahydroquinoxalin-1(2H)-yl)-2,6-difluorophenoxy)ethan-1-ol] | > 100 | > 100 | > 100 | –
11 | CC1(C)CN(c2cc(F)c(OCCO)c(F)c2)[C@@H]2CCCC[C@H]2N1 [Example 35] | > 100 | > 100 | 55.5 | –
12 | CC1(C)CN(c2cc(F)c(OCCO)c(F)c2)[C@H]2CCCC[C@H]2N1 [Example 36] | > 100 | – | 87.6 | 100
13 | CN1[C@H]2CCCC[C@@H]2N(c2ccc(OC(F)(F)CO)cc2)CC1(C)C [Example 37, 2,2-difluoro-2-(4-((4aS,8aS)-3,3,4-trimethyloctahydroquinoxalin-1(2H)-yl)phenoxy)ethan-1-ol] | 86.7 | > 100 | > 100 | –
